Results on 15 compounds are retold here after paper PMC9867151, “Anti-HIV Potential of Beesioside I Derivatives as Maturation Inhibitors: Synthesis, 3D-QSAR, Molecular Docking and Molecular Dynamics Simulations” (International Journal of Molecular Sciences, 2023).

Structures can show the parent of a compound that is named as a salt. Where two headings read alike, the source gives them in different places.

Data set [1] concerns HIV-1NL4-3 Nanoluc-sec virus. As to the kind of experiment: Anti-HIV assay: multicycle viral replication in MT4 cells, Nano-Glo luciferase readout. The format is cell-based. As for the experimental part:
(§1) All of the synthetic derivatives were evaluated for anti-HIV activity by determining the inhibitory effects on virus replication in MT4 lymphocytes infected by HIV-1NL4-3 Nanoluc-sec virus. Cytotoxic activity tests were also carried out on MT4 cells.
In vitro activity was determined by a previously described HIV-1 infection assay. Briefly, a 96-well microtiter plate was used to set up the screening assay using MT4 cells infected by HIV-1NL4-3 Nanoluc-sec virus in the presence of various concentrations of derivatives. The viral replication thus can be monitored by measuring the luciferase activity using the Promega Nano-Glo Luciferase Assay System.

Data set [2] is described as follows: CellTiter-Glo Luminescent Cytotoxicity Assay. In kind it is cell-based. The settings on record: human, MT-4 cells (MT4 lymphocytes). Here is the method:
as §1
(§2) The cytotoxicity of the synthesized derivatives was determined using the CellTiter-Glo® Luminescent Cytotoxicity Assay (Promega, Madison, WI, USA). MT-4 cells were cultured in the presence of various concentrations of the compounds for 3 days. The percentage of viable cells was measured by following the protocol provided by the manufacturer. The CC50 was derived using the Quest Graph™ IC50 Calculator (https://www.aatbio.com/tools/ic50-calculator, accessed on 7 October 2021).

In another data set the test system is MT4 cells. As to the kind of experiment: CellTiter-Glo Luminescent Cytotoxicity Assay. To be noted: MT-4 cells, 3 days. The format is cell-based. Here is the method:
as §1, §2

Data set [3] relates to HIV-1NL4-3 Nanoluc-sec virus. To be noted: cited from earlier work.
Where [4] appears, read: Human immunodeficiency virus 1, MT4, read-out: PEC50, actual value converted from EC50, 3D-QSAR dataset.
The mark [5] stands for this setting: 3D-QSAR dataset, actual values, ref activity data reported from our laboratory.
[6] abbreviates: Human immunodeficiency virus 1, MT4, 3D-QSAR dataset, actual values, entries matching the derivatives tested in this paper (Table 1).

Take `CC(=O)O[C@H]1[C@@H](OC(C)=O)[C@@]2(C)C3CCC4C(C)(C)[C@@H](OC(=O)CC(C)(C)C(=O)OCc5ccccc5)CC[C@@]45C[C@@]35CC[C@@]23CO[C@@]2(C(C)(C)O)CC[C@](C)(O2)[C@@H]13` (stereo partly drawn) (as salt: succinate) [3b, (20S,24S)-15β,16β-Diacetoxy-18,24;20,24-diepoxy-9,19-cyclolanostane-3β,25-diol-3-O-4′-(benzyloxy) carbonyl-3′,3′-dimethylsuccinate]: the melting point was in the range of 188 to 190 °C.

Take `CC(=O)O[C@H]1[C@@H](OC(C)=O)[C@@]2(C)C3CCC4C(C)(C)[C@@H](OC(=O)CC(C)(C)C(=O)OCc5ccccc5)CC[C@@]45C[C@@]35CC[C@@]23CO[C@@]2(C(C)(C)O)CC[C@](C)(O2)[C@@H]13` (stereo partly drawn) [3b, (20S,24S)-15β,16β-Diacetoxy-18,24;20,24-diepoxy-9,19-cyclolanostane-3β,25-diol-3-O-4′-(benzyloxy) carbonyl-3′,3′-dimethylsuccinate]: in data set [1] (Human immunodeficiency virus 1, NL43, MT4, read-out: EC50 (μM) NL4-3, MT4 cells infected by HIV-1NL4-3 Nanoluc-sec virus, mean +/− SD of 3 tests), the EC50 was 0.28 µM. For the same compound, the CC50 at 3 days in data set [2] is more than 20 µM. Take `Cc1cn([C@H]2C[C@H](N=[N+]=[N-])[C@@H](CO)O2)c(=O)[nH]c1=O` [AZT, reference compound]: the EC50 in data set [1] (MT4 cells infected by HIV-1NL4-3 Nanoluc-sec virus, mean +/− SD of 3 tests, read-out: EC50 (μM) NL4-3) came out at 0.024 ± 0.0045 µM. The CC50 in the data set with MT4 cells was more than 0.3 µM. For `CC(=O)OC1C2C3(C)CCC(C(C)(C)O)(OCC24CCC25CC26CCC(OC(C)=O)C(C)(C)C6CCC5C4(C)C1OC(C)=O)O3` (stereo not drawn) [compound 11], the EC50 in data set [1] (setting [4]) was 2.44 µM; in data set [3] (setting [5]) it was 2440 nM. As for `CC(=O)OC1C2C3(C)CCC(C(C)(C)O)(OCC24CCC25CC26CCC(OC(=O)CC(C)C(=O)O)C(C)(C)C6CCC5C4(C)C1OC(C)=O)O3` (stereo not drawn) [compound 6], the EC50 in data set [1] (setting [4]) was 1.11 µM; in data set [3] (setting [5]), 1110 nM. As to `CC12CCC(C(C)(C)O)(OCC34CCC56CC57CCC(OC5OCC(O)C(O)C5O)C(C)(C)C7CCC6C3(C)C(O)C(O)C14)O2` (stereo not drawn) [compound 14], the values for the EC50 in data set [1] (setting [4]) and in data set [3] (setting [5]) were 7.62 µM and 7620 nM, respectively. Turning to `CC(C)(CC(=O)OC1CCC23CC24CCC25COC6(C(C)(C)O)CCC(C)(O6)C2C(O)C(O)C5(C)C4CCC3C1(C)C)C(=O)O` (stereo not drawn) [compound 9], the EC50 in data set [1] (setting [6]) and in data set [1] (setting [4]) was 1.79 µM throughout.

For `CC(=O)OC1C2C3(C)CCC(C(C)(C)O)(OCC24CCC25CC26CCC(OC2OCC(O)C(O)C2O)C(C)(C)C6CCC5C4(C)C1OC(C)=O)O3` (stereo not drawn) [compound 10], the figures for the EC50 in data set [1] (setting [4]) and in data set [3] (setting [5]) were 2.32 µM and 2320 nM, respectively. For the compound `CC(=O)OC1C(O)C2C3(C)CCC(C(C)(C)O)(OCC24CCC25CC26CCC(OC2OCC(O)C(O)C2O)C(C)(C)C6CCC5C14C)O3` (stereo not drawn) [compound 13], the EC50 in data set [1] (setting [4]) was 4.85 µM; in data set [3] (setting [5]), 4850 nM. beesioside I [compound 1] gave a PEC50 in data set [1] (actual value converted from EC50, 3D-QSAR dataset) of 7.602. The EC50 in data set [3] (setting [5]) was 25 nM. Consider `CC(=O)OC1C2C3(C)CCC(C(C)(C)O)(OCC24CCC25CC26CCC(OC(=O)CC(C)(C)C(=O)OCc2ccccc2)C(C)(C)C6CCC5C4(C)C1OC(C)=O)O3` (stereo not drawn) [compound 4], for which the EC50 in data set [1] (setting [6]) and in data set [1] (setting [4]) was 0.285 µM each time.

As to `CC(C)(CC(=O)OC1CCC23CC24CCC25COC6(C(C)(C)O)CCC(C)(O6)C2C(O)C(O)C5(C)C4CCC3C1(C)C)C(=O)OCc1ccccc1` (stereo not drawn) [compound 7], the EC50 in data set [1] (setting [6]) and in data set [1] (setting [4]) was 1.52 µM in each case. Regarding `CC(=O)OC1C2C3(C)CCC(C(C)(C)O)(OCC24CCC25CC26CCC(OC(=O)CC(C)(C)C(=O)O)C(C)(C)C6CCC5C4(C)C1OC(C)=O)O3` [DSC, (20S,24S)-15ꞵ,16ꞵ-diacetoxy-18,24; 20,24-diepoxy-9,19-cyclolanostane-3ꞵ,25-diol 3-O-3′,3′-dimethylsuccinate], in data set [3] (anti-HIV, previous work), the EC50 is 25 nM.

On to `CC(C)(CC(=O)O[C@H]1CC[C@]23C[C@]24CC[C@]25CO[C@@]6(C(C)(C)O)CC[C@](C)(O6)[C@H]2[C@@H](O)[C@@H](O)[C@@]5(C)C4CCC3C1(C)C)C(=O)O` (stereo partly drawn) [3 ^a], for which, in data set [1] (setting [4]), the EC50 is 0.12 µM. `CC(=O)OC1C2C3(C)CCC(C(C)(C)O)(OCC24CCC25CC26CCC(OC(=O)CC2(CC(=O)O)CCCC2)C(C)(C)C6CCC5C4(C)C1OC(C)=O)O3` (stereo not drawn) [compound 8]: the figures for the EC50 in data set [1] (setting [4]) and in data set [3] (setting [5]) were 1.59 µM and 1590 nM, respectively.
